From ChEMBL document CHEMBL2396621, “Design, synthesis and biological evaluation of 2-mercapto-3-phenethylquinazoline bearing anilide fragments as potential antitumor agents: molecular docking study” (2013)

How the values were obtained:
Assay type in all cases: functional
[1] = tested on: HCC 2998; test: Cytotoxicity against human HCC2998 cells assessed as growth inhibition at 10 uM after 48 hrs by coulter counter analysis; conditions: HCC 2998, 48 h, read-out: GI
[2] = tested on: SN12C; test: Cytotoxicity against human SN12C cells assessed as growth inhibition at 10 uM after 48 hrs by coulter counter analysis; conditions: read-out: GI
[3] = tested on: SW-620; test: Cytotoxicity against human SW620 cells assessed as growth inhibition at 10 uM after 48 hrs by coulter counter analysis; conditions: SW-620, 48 h, read-out: GI
[4] = tested on: HOP-62; test: Cytotoxicity against human HOP62 cells assessed as growth inhibition at 10 uM after 48 hrs by coulter counter analysis; conditions: HOP-62, 48 h, read-out: GI
[5] = tested on: CAKI-1; test: Cytotoxicity against human Caki1 cells assessed as growth inhibition at 10 uM after 48 hrs by coulter counter analysis; conditions: CAKI-1, 48 h, read-out: GI
[6] = tested on: A549; test: Cytotoxicity against human A549 cells assessed as growth inhibition at 10 uM after 48 hrs by coulter counter analysis; conditions: A549, 48 h, read-out: GI
[7] = tested on: MDA-MB-231; test: Cytotoxicity against human MDA-MB-231 cells assessed as growth inhibition at 10 uM after 48 hrs by coulter counter analysis; conditions: MDA-MB-231, 48 h, read-out: GI
[8] = tested on: MDA-MB-468; test: Cytotoxicity against human MDA-MB-468 cells assessed as growth inhibition at 10 uM after 48 hrs by coulter counter analysis; conditions: MDA-MB-468, 48 h, read-out: GI
[9] = tested on: MOLT-4; test: Cytotoxicity against human MOLT4 cells assessed as growth inhibition at 10 uM after 48 hrs by coulter counter analysis; conditions: MOLT-4, 48 h, read-out: GI
[10] = tested on: M14; test: Cytotoxicity against human M14 cells assessed as growth inhibition at 10 uM after 48 hrs by coulter counter analysis; conditions: M14, 48 h, read-out: GI
[11] = tested on: A498; test: Cytotoxicity against human A498 cells assessed as growth inhibition at 10 uM after 48 hrs by coulter counter analysis; conditions: A498, 48 h, read-out: GI
[12] = Cytotoxicity against human NCI-ADR-RES cells assessed as growth inhibition at 10 uM after 48 hrs by coulter counter analysis; conditions: read-out: GI
[13] = tested on: OVCAR-5; test: Cytotoxicity against human OVCAR5 cells assessed as growth inhibition at 10 uM after 48 hrs by coulter counter analysis; conditions: OVCAR-5, 48 h, read-out: GI
[14] = tested on: HCT-15; test: Cytotoxicity against human HCT15 cells assessed as growth inhibition at 10 uM after 48 hrs by coulter counter analysis; conditions: HCT-15, 48 h, read-out: GI
[15] = tested on: Malme-3M; test: Cytotoxicity against human MALME-3M cells assessed as growth inhibition at 10 uM after 48 hrs by coulter counter analysis; conditions: read-out: GI
[16] = tested on: MDA-MB-435; test: Cytotoxicity against human MDA-MB-435 cells assessed as growth inhibition at 10 uM after 48 hrs by coulter counter analysis; conditions: MDA-MB-435, 48 h, read-out: GI
[17] = Cytotoxicity against human breast cancer cells after 48 hrs by coulter counter analysis; conditions: Cancer cell lines
[18] = Cytotoxicity against human non-small cell lung cancer cells after 48 hrs by coulter counter analysis; conditions: Cancer cell lines
[19] = Cytotoxicity against human renal cancer cells after 48 hrs by coulter counter analysis; conditions: Cancer cell lines
[20] = Cytotoxicity against human prostate cancer cells after 48 hrs by coulter counter analysis; conditions: Cancer cell lines
[21] = Cytotoxicity against human CNS cancer cells after 48 hrs by coulter counter analysis; conditions: Cancer cell lines
[22] = Cytotoxicity against human melanoma cells after 48 hrs by coulter counter analysis; conditions: Melanoma cell
[23] = Cytotoxicity against human colon cancer cells after 48 hrs by coulter counter analysis; conditions: Cancer cell lines
[24] = Cytotoxicity against human ovarian cancer cells after 48 hrs by coulter counter analysis; conditions: Cancer cell lines
[25] = Cytotoxicity against human leukemia cells after 48 hrs by coulter counter analysis; conditions: Leukemia cell
[26] = tested on: HL-60(TB); test: Cytotoxicity against human HL-60(TB) cells assessed as growth inhibition at 10 uM after 48 hrs by coulter counter analysis; conditions: HL-60, 48 h, read-out: GI
[27] = read-out: LC50 (the source's name)

Question: For CCOc1ccc(NC(=O)CSc2nc3ccccc3c(=O)n2CCc2ccccc2)cc1, which inhibition of growth at 10 µM [1] is on record?
Answer: < 10%

Question: And the inhibition of growth at 10 µM [2]?
Answer: < 10%

Question: And the inhibition of growth at 10 µM [3]?
Answer: < 10%

Question: And the inhibition of growth at 10 µM [4]?
Answer: 36%

Question: What about the inhibition of growth at 10 µM [5] of the same molecule?
Answer: 12%

Question: And the inhibition of growth at 10 µM [6]?
Answer: 13%

Question: What about the inhibition of growth at 10 µM [7] of the same molecule?
Answer: 25%

Question: And the inhibition of growth at 10 µM [8]?
Answer: 10%

Question: And the inhibition of growth at 10 µM [9]?
Answer: 10%

Question: What about the inhibition of growth at 10 µM [10] of the same molecule?
Answer: 10%

Question: And the inhibition of growth at 10 µM [11]?
Answer: < 10%

Question: What about the inhibition of growth at 10 µM [12] of the same molecule?
Answer: < 10%

Question: What about the inhibition of growth at 10 µM [13] of the same molecule?
Answer: < 10%

Question: And the inhibition of growth at 10 µM [14]?
Answer: < 10%

Question: What about the inhibition of growth at 10 µM [15] of the same molecule?
Answer: 37%

Question: And the inhibition of growth at 10 µM [16]?
Answer: 14%

Question: Which GI50 [17] does the source give for COc1cc(NC(=O)CSc2nc3ccccc3c(=O)n2CCc2ccccc2)cc(OC)c1OC here?
Answer: 2.77 µM

Question: What about the TGI [17] of the same molecule?
Answer: 44.1 µM

Question: What about the GI50 [18] of the same molecule?
Answer: 2.04 µM

Question: What about the TGI [18] of the same molecule?
Answer: 43.1 µM

Question: And the CC50 [18, 27]?
Answer: > 100 µM

Question: What about the inhibition of growth at 10 µM [1] of the same molecule?
Answer: 66%

Question: What about the GI50 [19] of the same molecule?
Answer: 1.77 µM

Question: What about the TGI [19] of the same molecule?
Answer: 3.63 µM

Question: What about the inhibition of growth at 10 µM [2] of the same molecule?
Answer: 75%

Question: What about the inhibition of growth at 10 µM [3] of the same molecule?
Answer: 52%

Question: What about the inhibition of growth at 10 µM [4] of the same molecule?
Answer: 91%

Question: And the inhibition of growth at 10 µM [6]?
Answer: 76%

Question: And the GI50 [20]?
Answer: 4.98 µM

Question: And the TGI [20]?
Answer: > 100 µM

Question: And the CC50 [20, 27]?
Answer: > 100 µM

Question: What about the GI50 [21] of the same molecule?
Answer: 2.73 µM

Question: What about the TGI [21] of the same molecule?
Answer: 13.5 µM

Question: And the CC50 [21, 27]?
Answer: 75 µM

Question: What about the GI50 [22] of the same molecule?
Answer: 3.3 µM

Question: And the TGI [22]?
Answer: 76.6 µM

Question: And the inhibition of growth at 10 µM [7]?
Answer: > 100%

Question: What about the inhibition of growth at 10 µM [8] of the same molecule?
Answer: 71%

Question: And the inhibition of growth at 10 µM [10]?
Answer: 68%

Question: And the GI50 [23]?
Answer: 2.02 µM

Question: What about the TGI [23] of the same molecule?
Answer: > 100 µM

Question: And the CC50 [23, 27]?
Answer: > 100 µM

Question: What about the inhibition of growth at 10 µM [11] of the same molecule?
Answer: > 100%

Question: What about the inhibition of growth at 10 µM [12] of the same molecule?
Answer: 64%

Question: What about the inhibition of growth at 10 µM [13] of the same molecule?
Answer: 35%

Question: What about the GI50 [24] of the same molecule?
Answer: 2.55 µM

Question: What about the TGI [24] of the same molecule?
Answer: 52 µM

Question: What about the inhibition of growth at 10 µM [14] of the same molecule?
Answer: 11%

Question: And the inhibition of growth at 10 µM [15]?
Answer: 59%

Question: What about the inhibition of growth at 10 µM [16] of the same molecule?
Answer: > 100%

Question: What about the GI50 [25] of the same molecule?
Answer: > 100 µM

Question: What about the TGI [25] of the same molecule?
Answer: > 100 µM

Question: Which inhibition of growth at 10 µM [1] does the source give for COc1cc(NC(=O)CCSc2nc3ccccc3c(=O)n2CCc2ccccc2)cc(OC)c1OC here?
Answer: < 10%

Question: What about the inhibition of growth at 10 µM [2] of the same molecule?
Answer: 16%

Question: And the inhibition of growth at 10 µM [3]?
Answer: 14%

Question: And the inhibition of growth at 10 µM [4]?
Answer: 45%

Question: And the inhibition of growth at 10 µM [5]?
Answer: 74%

Question: And the inhibition of growth at 10 µM [6]?
Answer: 29%

Question: What about the inhibition of growth at 10 µM [7] of the same molecule?
Answer: 66%

Question: What about the inhibition of growth at 10 µM [8] of the same molecule?
Answer: 27%

Question: And the inhibition of growth at 10 µM [9]?
Answer: 40%

Question: And the inhibition of growth at 10 µM [26]?
Answer: 27%

Question: What about the inhibition of growth at 10 µM [10] of the same molecule?
Answer: 40%

Question: And the inhibition of growth at 10 µM [11]?
Answer: 37%

Question: What about the inhibition of growth at 10 µM [12] of the same molecule?
Answer: 13%

Question: And the inhibition of growth at 10 µM [13]?
Answer: < 10%

Question: And the inhibition of growth at 10 µM [14]?
Answer: 18%

Question: And the inhibition of growth at 10 µM [15]?
Answer: 77%

Question: What about the inhibition of growth at 10 µM [16] of the same molecule?
Answer: 38%

Question: What does the source list for O=C(CSc1nc2ccccc2c(=O)n1CCc1ccccc1)Oc1ccccc1?
Answer: inhibition of growth at 10 µM [1]: < 10%; inhibition of growth at 10 µM [2]: 16%; inhibition of growth at 10 µM [3]: < 10%; inhibition of growth at 10 µM [5]: < 10%; inhibition of growth at 10 µM [6]: 12%; inhibition of growth at 10 µM [7]: 15%; inhibition of growth at 10 µM [8]: < 10%; inhibition of growth at 10 µM [9]: 23%; inhibition of growth at 10 µM [26]: 11%; inhibition of growth at 10 µM [10]: 13%; inhibition of growth at 10 µM [11]: 18%; inhibition of growth at 10 µM [12]: 22%; inhibition of growth at 10 µM [13]: < 10%; inhibition of growth at 10 µM [14]: < 10%; inhibition of growth at 10 µM [15]: 16%; inhibition of growth at 10 µM [16]: 19%

Question: Which inhibition of growth at 10 µM [1] does the source give for COc1cc(OC(=O)CSc2nc3ccccc3c(=O)n2CCc2ccccc2)cc(OC)c1OC here?
Answer: < 10%

Question: And the inhibition of growth at 10 µM [2]?
Answer: 10%

Question: And the inhibition of growth at 10 µM [3]?
Answer: < 10%

Question: What about the inhibition of growth at 10 µM [4] of the same molecule?
Answer: < 10%

Question: What about the inhibition of growth at 10 µM [5] of the same molecule?
Answer: 28%

Question: What about the inhibition of growth at 10 µM [6] of the same molecule?
Answer: 10%

Question: What about the inhibition of growth at 10 µM [7] of the same molecule?
Answer: 20%

Question: What about the inhibition of growth at 10 µM [8] of the same molecule?
Answer: < 10%

Question: What about the inhibition of growth at 10 µM [10] of the same molecule?
Answer: < 10%

Question: What about the inhibition of growth at 10 µM [11] of the same molecule?
Answer: < 10%

Question: And the inhibition of growth at 10 µM [12]?
Answer: 11%

Question: What about the inhibition of growth at 10 µM [13] of the same molecule?
Answer: < 10%

Question: And the inhibition of growth at 10 µM [14]?
Answer: 48%

Question: What about the inhibition of growth at 10 µM [15] of the same molecule?
Answer: < 10%

Question: And the inhibition of growth at 10 µM [16]?
Answer: < 10%
